Measurements from the supplement of paper PMC11208160.

Test: recombinant UMI read abundance after kanamycin selection (control-corrected) (log10(CPM+1)); higher = more efficient recombination; extreme values may be limits of the assay; sequences stand for … in AGTGCAGAGAAAATCGGCCAGTTTTCTCTGCCTGCAGTCCGCATGCCGTGGGACCCCTTGGGTTCTAACCTGTTGCCTAGATTTATGCAGCGGACTGCCTTTCTCCCAAAGTGATAAACCGG…AGGTTGGTTTCACT; site = the 11-nt donor
How it was run: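 In Escherichia coli, a pool of donor and donor-binding-loop pairs, each with a 12-nt UMI, was tested for the IS621 bridge recombinase. Plating was on IPTG (0.07 mM) plus kanamycin, or without selection, in two replicates. Recombinant UMIs were amplified by PCR across the donor–target junction and sequenced, and counts were reported as log10(CPM+1) after averaging and control-derived scaling.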
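Also: IS621 bridge recombinase in Escherichia coli cells against a fixed T5 target plasmid.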

Sequence	recombinant UMI read abundance (log10)
ATTGACCCATGGACCGGTTTTCCCGGTAATCCGTATTTGGA (site ATTGACCCTTC)	0.0199
ATTGAGACATGGACCGGTTTTCCCGGTAATCCGTATTTGGA (site ATTGAGACTAC)	0.0442
ATTGAGACATGGACCGGTTTTCCCGGTAATCCGTATTTGGA (site ATTGAGACTCC)	0.663
ATTGAGACATGGACCGGTTTTCCCGGTAATCCGTATTTGGA (site ATTGAGACTGC)	0.645
ATTGAGACATGGACCGGTTTTCCCGGTAATCCGTATTTGGA (site ATTGAGACTTC)	1
ATTGAGACATGGACCGGTTTTCCCGGTAATCCGTATTTGGT (site AATGAGACTAC)	0.233
ATTGAGACATGGACCGGTTTTCCCGGTAATCCGTATTTGGT (site ACTGAGACTAC)	0.972
ATTGAGACATGGACCGGTTTTCCCGGTAATCCGTATTTGGT (site AGTGAGACTAC)	0.609
ATTGAGACATGGACCGGTTTTCCCGGTAATCCGTATTTGGT (site ATAGAGACTAC)	1.78
ATTGAGACATGGACCGGTTTTCCCGGTAATCCGTATTTGGT (site ATCGAGACTAC)	0.854
ATTGAGACATGGACCGGTTTTCCCGGTAATCCGTATTTGGT (site ATGGAGACTAC)	0.639
ATTGAGACATGGACCGGTTTTCCCGGTAATCCGTATTTGGT (site ATTAAGACTAC)	1.62
ATTGAGACATGGACCGGTTTTCCCGGTAATCCGTATTTGGT (site ATTCAGACTAC)	0.296
ATTGAGACATGGACCGGTTTTCCCGGTAATCCGTATTTGGT (site ATTGAAACTAC)	1.88
ATTGAGACATGGACCGGTTTTCCCGGTAATCCGTATTTGGT (site ATTGACACTAC)	0.0545
ATTGAGACATGGACCGGTTTTCCCGGTAATCCGTATTTGGT (site ATTGAGACTAA)	0.949
ATTGAGACATGGACCGGTTTTCCCGGTAATCCGTATTTGGT (site ATTGAGACTAC)	1.39
ATTGAGACATGGACCGGTTTTCCCGGTAATCCGTATTTGGT (site ATTGAGACTAG)	0.772
ATTGAGACATGGACCGGTTTTCCCGGTAATCCGTATTTGGT (site ATTGAGACTAT)	1.17

Sequence	recombinant UMI read abundance (log10)
ATTGAGACATGGACCGGTTTTCCCGGTAATCCGTATTTGGT (site ATTGAGACTCC)	0.379
ATTGAGACATGGACCGGTTTTCCCGGTAATCCGTATTTGGT (site ATTGAGACTGC)	0.953
ATTGAGACATGGACCGGTTTTCCCGGTAATCCGTATTTGGT (site ATTGAGACTTC)	0.0155
ATTGAGACATGGACCGGTTTTCCCGGTAATCCGTATTTGGT (site ATTGAGCCTAC)	0.0258
ATTGAGACATGGACCGGTTTTCCCGGTAATCCGTATTTGGT (site ATTGAGGCTAC)	0.186
ATTGAGACATGGACCGGTTTTCCCGGTAATCCGTATTTGGT (site ATTGAGTCTAC)	1.06
ATTGAGACATGGACCGGTTTTCCCGGTAATCCGTATTTGGT (site ATTGATACTAC)	0.512
ATTGAGACATGGACCGGTTTTCCCGGTAATCCGTATTTGGT (site ATTGCGACTAC)	0.151
ATTGAGACATGGACCGGTTTTCCCGGTAATCCGTATTTGGT (site ATTGGGACTAC)	0.407
ATTGAGACATGGACCGGTTTTCCCGGTAATCCGTATTTGGT (site ATTGTGACTAC)	0.471
ATTGAGACATGGACCGGTTTTCCCGGTAATCCGTATTTGGT (site ATTTAGACTAC)	0.353
ATTGAGACATGGACCGGTTTTCCCGGTAATCCGTATTTGGT (site CTTGAGACTAC)	0.935
ATTGAGACATGGACCGGTTTTCCCGGTAATCCGTATTTGGT (site GTTGAGACTAC)	0.235
ATTGAGACATGGACCGGTTTTCCCGGTAATCCGTATTTGGT (site TTTGAGACTAC)	0.435
ATTGATACATGGACCGGTTTTCCCGGTAATCCGTATTTGGT (site ATTGAAACTAC)	0.445
ATTGATACATGGACCGGTTTTCCCGGTAATCCGTATTTGGT (site ATTGACACTAC)	0.179
ATTGATACATGGACCGGTTTTCCCGGTAATCCGTATTTGGT (site ATTGAGACTAC)	0.00596
ATTGATACATGGACCGGTTTTCCCGGTAATCCGTATTTGGT (site ATTGATACTAC)	1.33
ATTGCAACATGGACCGGTTTTCCCGGTAATCCGTATTTGGG (site ATTGCAACTCC)	0.0185

Sequence	recombinant UMI read abundance (log10)
ATTGCCCCATGGACCGGTTTTCCCGGTAATCCGTATTTGTC (site ATTGCCCCTGA)	0
ATTGCGGCATGGACCGGTTTTCCCGGTAATCCGTATTTGCT (site ATTGCGGCTAG)	1.27
ATTGCGGCATGGACCGGTTTTCCCGGTAATCCGTATTTGCT (site CTTGCGGCTAG)	0.161
ATTGCGGCATGGACCGGTTTTCCCGGTAATCCGTATTTGCT (site GTTGCGGCTAG)	0.0081
ATTGCGGCATGGACCGGTTTTCCCGGTAATCCGTATTTGCT (site TTTGCGGCTAG)	0.371
ATTGCGGCATGGACCGGTTTTCCCGGTAATCCGTATTTGGG (site ATTGCGGCTCC)	0.0219
ATTGGTACATGGACCGGTTTTCCCGGTAATCCGTATTTGCG (site ATTGGTACTCG)	1.35
ATTGTGACATGGACCGGTTTTCCCGGTAATCCGTATTTGGT (site ATTGAGACTAC)	0.524
ATTGTGACATGGACCGGTTTTCCCGGTAATCCGTATTTGGT (site ATTGCGACTAC)	0.0121
ATTGTGACATGGACCGGTTTTCCCGGTAATCCGTATTTGGT (site ATTGGGACTAC)	0.0143
ATTGTGACATGGACCGGTTTTCCCGGTAATCCGTATTTGGT (site ATTGTGACTAC)	0.925
ATTGTTCCATGGACCGGTTTTCCCGGTAATCCGTATTTGGT (site ATTGTTCCTAC)	0
ATTGTTCCATGGACCGGTTTTCCCGGTAATCCGTATTTGGT (site CTTGTTCCTAC)	0
ATTGTTCCATGGACCGGTTTTCCCGGTAATCCGTATTTGGT (site GTTGTTCCTAC)	0.00837
ATTGTTCCATGGACCGGTTTTCCCGGTAATCCGTATTTGGT (site TTTGTTCCTAC)	0.331
ATTTACACATGGACCGGTTTTCCCGGTAATCCGTATTTGTT (site ATTTACACTAA)	0.967
ATTTATGCATGGACCGGTTTTCCCGGTAATCCGTATTTGGA (site AATTATGCTTC)	0.379
ATTTATGCATGGACCGGTTTTCCCGGTAATCCGTATTTGGA (site ACTTATGCTTC)	1.06
ATTTATGCATGGACCGGTTTTCCCGGTAATCCGTATTTGGA (site AGTTATGCTTC)	0.744
